# Test results published in PubChem BioAssay AID1963872 (Molecular Pharmacology Branch, DTP, NCI, 2024).
# Values joined by “and” are separate entries in the source; they are usually repeats but may differ in a detail not shown here. Identical values can stand only once.
# System: KRAS patient-derived spheroids with HUVEC/MSC, viability
# Test: Anticancer human tumor 519858-162-T-J1-PDC patient-derived colon adenocarcinoma cell line growth inhibition [KRAS2]
# Conditions: for viability, T/C: stronger effect = lower value
# Excerpt: Multicellular complex tumor spheroid response to RAS pathway inhibitors in combination with a targeted agents in patient-derived cell lines with oncogenic KRAS variants from multiple cancer types
# A high-throughput screen of multi-cell type tumor spheroids was designed to identify active combinations of targeted small molecules and KRAS pathway inhibitors. Complex spheroids include a stromal component modeled by human endothelial cells (HUVEC) and fibroblasts modeled by human mesenchymal stem cells (MSCs). The concentration ranges selected for each drug and investigational agent were based upon clinically achievable concentrations if the clinical Cmax of the agent was known.
# Compounds. The drugs and investigational agents: BI-3406 (NSC825286), BAY-293 (NSC824723), batoprotafib (TNO155; NSC825523), sotorasib (AMG 510; NSC818433), MRTX1257 (NSC819558), elimusertib (BAY 1895344; NSC800525), molibresib (GSK525762; NSC774829), temuterkib (LY3214996; NSC803410), venetoclax (NSC766270), alisertib (NSC759677), olaparib (NSC753686), talazoparib (NSC767125), erdafitinib (NSC781556), ipatasertib (NSC767898), cabozantinib (NSC761068), nintedanib (NSC756659), abemaciclib (NSC768073), docetaxel (NSC628503), trametinib (NSC758246), and sapanisertib (NSC764658) were obtained from the National Cancer Institute (NCI) Developmental Therapeutics Program Chemical Repository. The FDA-approved anticancer drug set is available from the Developmental Therapeutics Program. […] The stock solutions were prepared in dimethyl sulfoxide (DMSO, Sigma-Aldrich, St. Louis, MO, cat. D2650) at 800-fold the tested concentration and stored at -70 degrees C prior to their use. All drugs and investigational agents were tested over a range starting from a high concentration at or near the clinical Cmax and decreasing in half-log increments. If the clinical Cmax for an agent had not been determined, the highest concentration tested was 10 microM.
# Cell Culture. All cells were maintained in an incubator at 37 degrees C and 5% CO2 with 95% humidity. The PDC lines were cultured according to standard operating procedures established by the NCI PDMR (https://pdmr.cancer.gov/sops/default.htm). Briefly, all PDCs were thawed and cultured in Matrigel-coated flasks prepared with a working solution of 1X Ham's F-12 nutrient mix, without supplementation (Invitrogen, Waltham, MA, cat. 11765054), 100 U/mL penicillin-streptomycin (Invitrogen, cat. 15140122), and 2.5% Matrigel (Corning Inc., Corning, NY, cat. 354248) for the first three passages. All PDCs were cultured in complete DMEM/F-12 media containing advanced DMEM/F-12 (Invitrogen, cat. 12634028), 4.9% defined fetal bovine serum, heat inactivated (HyClone Laboratories Inc., Logan, UT, cat. SH30070.03HI), 389 ng/mL hydrocortisone (Sigma-Aldrich, cat. H4001), 9.7 ng/mL human EGF recombinant protein (Invitrogen, cat. PHG0313), 23.4 microg/mL adenine (Sigma-Aldrich, cat. A2786), 97.3 U/mL penicillin-streptomycin (Invitrogen, cat. 15140122), 1.9 mM L-glutamine (Invitrogen, cat. 25030081), and 9.7 microM Y-27632 dihydrochloride (Tocris Bioscience, Bristol, United Kingdom, cat. 1254). The PDCs were cultured in complete DMEM/F12 media without 9.7 microM Y-27632 dihydrochloride for at least two passages prior to the screen. The established cell line HOP-62 was cultured in RPMI 1640 medium, HEPES (Invitrogen, cat. 22400105) with 10% defined fetal bovine serum (HyClone Laboratories Inc., cat. SH30070.03) and 2 mM L-glutamine (Invitrogen, cat. 25030081). The pooled donor HUVEC were cultured in endothelial cell growth medium 2 (PromoCell, Heidelberg, Germany, cat. C-22011) and the hMSC were cultured in mesenchymal stem cell growth medium 2 (PromoCell, cat. C-28009). For all experiments, HUVEC and hMSC were used at passages </=5, while the malignant cell lines were used at passages </=15. […]
# [1] = curve of first compound, second compound 0.0316 µM
# [2] = curve of first compound, second compound 0.1 µM
# [3] = curve of first compound, second compound 0.316 µM
# [4] = curve of first compound, second compound 1 µM
# [5] = curve of first compound, second compound 3.16 µM
# [6] = second compound 0.0316 µM, first compound 0.0316 µM
# [7] = second compound 0.0316 µM, first compound 0.1 µM
# [8] = second compound 0.1 µM, first compound 0.0316 µM
# [9] = second compound 0.1 µM, first compound 0.1 µM
# [10] = second compound 0.316 µM, first compound 0.0316 µM
# [11] = second compound 0.316 µM, first compound 0.1 µM
# [12] = second compound 1 µM, first compound 0.0316 µM
# [13] = second compound 1 µM, first compound 0.1 µM
# [14] = second compound 3.16 µM, first compound 0.0316 µM
# [15] = second compound 3.16 µM, first compound 0.1 µM
# [16] = second compound 0.1 µM, first compound 0.316 µM
# [17] = second compound 0.1 µM, first compound 1 µM
# [18] = second compound 0.1 µM, first compound 3.16 µM
# [19] = second compound 0.1 µM, first compound 10 µM
# [20] = second compound 0.316 µM, first compound 0.316 µM
# [21] = second compound 0.316 µM, first compound 1 µM
# [22] = second compound 0.316 µM, first compound 3.16 µM
# [23] = second compound 0.316 µM, first compound 10 µM
# [24] = second compound 1 µM, first compound 0.316 µM
# [25] = second compound 1 µM, first compound 1 µM
# [26] = second compound 1 µM, first compound 3.16 µM
# [27] = second compound 1 µM, first compound 10 µM
# [28] = second compound 3.16 µM, first compound 0.316 µM
# [29] = second compound 3.16 µM, first compound 1 µM
# [30] = second compound 3.16 µM, first compound 3.16 µM
# [31] = second compound 3.16 µM, first compound 10 µM
# 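Further: compound exposure lasted seven days before readout.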
# 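Wherever viability, T/C is given: 100% = DMSO vehicle control viability.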
compound,measurement,setting,value
Cn1nccc1Nc1nccc(-c2cc3c(s2)C(C)(C)N(CCN2CCOCC2)C3=O)n1,"viability, T/C",compound 0.0316 µM,95.4% [middle of 5 runs]
same,"viability, T/C",compound 0.1 µM,92.5% [middle of 5 runs]
same,"viability, T/C",compound 0.316 µM,87.5% [middle of 5 runs]
same,"viability, T/C",compound 1 µM,69.5% [middle of 5 runs]
same,"viability, T/C",compound 10 µM,31.8% [middle of 5 runs]
Cn1ncnc1[C@H]1c2n[nH]c(=O)c3cc(F)cc(c23)N[C@@H]1c1ccc(F)cc1 + C=CC(=O)N1CCN(c2nc(OCC3CCCN3C)nc3c2CCN(c2cccc4cccc(C)c24)C3)CC1CC#N,IC50,[1],> 0.1 µM
same,IC50,[2],> 0.1 µM
same,IC50,[3],> 0.1 µM
same,IC50,[4],> 0.1 µM
same,IC50,[5],> 0.1 µM
same,"viability, T/C","second compound 0.0316 µM, first compound 0.000316 µM",84.3%
same,"viability, T/C","second compound 0.0316 µM, first compound 0.001 µM",88.4%
same,"viability, T/C","second compound 0.0316 µM, first compound 0.00316 µM",75.1%
same,"viability, T/C","second compound 0.0316 µM, first compound 0.01 µM",89.1%
same,"viability, T/C",[6],68.9%
same,"viability, T/C",[7],65.5%
same,"viability, T/C","second compound 0.1 µM, first compound 0.000316 µM",62.2%
same,"viability, T/C","second compound 0.1 µM, first compound 0.001 µM",74.2%
same,"viability, T/C","second compound 0.1 µM, first compound 0.00316 µM",76.6%
same,"viability, T/C","second compound 0.1 µM, first compound 0.01 µM",70.2%
same,"viability, T/C",[8],85.9%
same,"viability, T/C",[9],91.7%
same,"viability, T/C","second compound 0.316 µM, first compound 0.000316 µM",66%
same,"viability, T/C","second compound 0.316 µM, first compound 0.001 µM",73.8%
same,"viability, T/C","second compound 0.316 µM, first compound 0.00316 µM",74.1%
same,"viability, T/C","second compound 0.316 µM, first compound 0.01 µM",66.3%
same,"viability, T/C",[10],78.5%
same,"viability, T/C",[11],76.3%
same,"viability, T/C","second compound 1 µM, first compound 0.000316 µM",61.3%
same,"viability, T/C","second compound 1 µM, first compound 0.001 µM",75.8%
same,"viability, T/C","second compound 1 µM, first compound 0.00316 µM",59.6%
same,"viability, T/C","second compound 1 µM, first compound 0.01 µM",72.3%
same,"viability, T/C",[12],84.2%
same,"viability, T/C",[13],72.3%
same,"viability, T/C","second compound 3.16 µM, first compound 0.000316 µM",71.7%
same,"viability, T/C","second compound 3.16 µM, first compound 0.001 µM",67.4%
same,"viability, T/C","second compound 3.16 µM, first compound 0.00316 µM",62.3%
same,"viability, T/C","second compound 3.16 µM, first compound 0.01 µM",62.3%
same,"viability, T/C",[14],59.2%
same,"viability, T/C",[15],58.9%
COc1cc2nccc(Oc3ccc(NC(=O)C4(C(=O)Nc5ccc(F)cc5)CC4)cc3)c2cc1OC + C=CC(=O)N1CCN(c2nc(OCC3CCCN3C)nc3c2CCN(c2cccc4cccc(C)c24)C3)CC1CC#N,IC50,[1],> 10 µM
same,IC50,[2],> 10 µM
same,IC50,[3],> 10 µM
same,IC50,[4],> 10 µM
same,IC50,[5],4.78 µM
same,"viability, T/C",[6],73.6%
same,"viability, T/C",[7],99.7%
same,"viability, T/C","second compound 0.0316 µM, first compound 0.316 µM",91.6%
same,"viability, T/C","second compound 0.0316 µM, first compound 1 µM",78.1%
same,"viability, T/C","second compound 0.0316 µM, first compound 3.16 µM",103%
same,"viability, T/C","second compound 0.0316 µM, first compound 10 µM",122%
same,"viability, T/C",[8],85.2%
same,"viability, T/C",[9],98.3%
same,"viability, T/C",[16],80.3%
same,"viability, T/C",[17],77.9%
same,"viability, T/C",[18],77.2%
same,"viability, T/C",[19],84.5%
same,"viability, T/C",[10],109%
same,"viability, T/C",[11],82.5%
same,"viability, T/C",[20],109%
same,"viability, T/C",[21],99.1%
same,"viability, T/C",[22],98.5%
same,"viability, T/C",[23],132%
same,"viability, T/C",[12],71.5%
same,"viability, T/C",[13],74.5%
same,"viability, T/C",[24],77.6%
same,"viability, T/C",[25],76.8%
same,"viability, T/C",[26],104%
same,"viability, T/C",[27],145%
same,"viability, T/C",[14],77.6%
same,"viability, T/C",[15],72.2%
same,"viability, T/C",[28],69.5%
same,"viability, T/C",[29],74.8%
same,"viability, T/C",[30],93.5%
same,"viability, T/C",[31],0.86%
CC(C)NCC(C(=O)N1CCN(c2ncnc3c2C(C)CC3O)CC1)c1ccc(Cl)cc1 (configuration not stated) + CC1OCC2(CCN(c3cnc(Sc4ccnc(N)c4Cl)c(N)n3)CC2)C1N,IC50,[2],> 10 µM
same,IC50,[3],> 10 µM
same,IC50,[4],> 10 µM
same,IC50,[5],> 10 µM
same,IC50,"curve of first compound, second compound 10 µM",> 10 µM
same,"viability, T/C",[8],83.1%
same,"viability, T/C",[9],84.9%
same,"viability, T/C",[16],54.9%
same,"viability, T/C",[17],61.9%
same,"viability, T/C",[18],64%
same,"viability, T/C",[19],88.8%
same,"viability, T/C",[10],93%
same,"viability, T/C",[11],55.3%
same,"viability, T/C",[20],55.9%
same,"viability, T/C",[21],44%
same,"viability, T/C",[22],60.1%
same,"viability, T/C",[23],70.9%
same,"viability, T/C",[12],77%
same,"viability, T/C",[13],71.9%
same,"viability, T/C",[24],58.7%
same,"viability, T/C",[25],62%
same,"viability, T/C",[26],59.2%
same,"viability, T/C",[27],69.3%
same,"viability, T/C",[14],59.7%
same,"viability, T/C",[15],70.9%
same,"viability, T/C",[28],56.1%
same,"viability, T/C",[29],55.2%
same,"viability, T/C",[30],51.8%
same,"viability, T/C",[31],61%
same,"viability, T/C","second compound 10 µM, first compound 0.0316 µM",69.5%
same,"viability, T/C","second compound 10 µM, first compound 0.1 µM",56.3%
same,"viability, T/C","second compound 10 µM, first compound 0.316 µM",65.9%
same,"viability, T/C","second compound 10 µM, first compound 1 µM",66.1%
same,"viability, T/C","second compound 10 µM, first compound 3.16 µM",68.9%
same,"viability, T/C","second compound 10 µM, first compound 10 µM",56.4%
CC1(C)CCC(CN2CCN(c3ccc(C(=O)NS(=O)(=O)c4ccc(NCC5CCOCC5)c([N+](=O)[O-])c4)c(Oc4cnc5[nH]ccc5c4)c3)CC2)=C(c2ccc(Cl)cc2)C1,"viability, T/C",compound 3.16 µM,79.3% [middle of 5 runs]
same,IC50,curve of compound,> 10 µM and 9.28 µM
